Laboratory results taken from patent US11993576B2, “N-benzyl-N-arylsulfonamide derivative and preparation and use thereof” (Hangzhou Yirui Pharmaceutical Technology Co., Ltd, priority 2019, dated 2024).

Molecular target: human Kv1.3 (Homo sapiens, UniProt P22001)
Assay: IonWorks automated patch clamp assay of inhibitory activity against Kv1.3
Format: cell-based
Settings: automated patch clamp method; CHO-K1 cells stably expressing human Kv1.3
Experimental: I. IonWorks Automated Patch Clamp Assay of Inhibitory Activity Against Kv1.3
The principle and method for Kv1.3 IonWorks assay can be found in Schroeder et al. [Schroeder et al. J Biomol Screen 2003, 8(1):50-64]
Inhibitory activity of the compounds against Kv1.3 was assessed using a CHO-K1 recombinant cell line stably expressing human Kv1.3 (Charles River, Calif.). The cells were cultured in an F-12K culture medium containing 5% calf serum (Invitrogen, Carlsbad. Calif.) in an incubator at 37° C. and under air humidity with 6% CO2. Prior to be fed in the IonWorks system, the adherent cells were treated with Versene at 37° C. for 6-7 min. After gently beating the culture flask, the cells were re-suspended in a PBS phosphate buffer, and then were centrifuged at 50×g for 4 min. After a short grinding, the cells were eventually re-suspended in an external recording solution at a density of approximately 1×10^6/mL.
The compounds were dissolved in DMSO to formulate a final assay concentration of 300× on the master plate. The final gradient assay concentrations were […], 0.096, 0.048, 0.24, 1.2, 6 and 30 μM. All 300× stock solutions of each compound in DMSO were transferred to a 384-well plate with 2 μl per well. The plates were sealed and stored at −80° C. until the day of assay.
On the day of assay, the plates were each thawed at room temperature. After centrifugation, 198 μl of the external recording solution (with the components of: 130 mM Na-Gluconate, 20 mM NaCl, 4 mM KCl, 1 mM MgCl2, 1.8 mM CaCl2, 5 mM Glucose and 10 mM HEPES, pH7.3) was added and mixed thoroughly. This step provided a 1:100 dilution for the compounds. After addition of cells to IonWorks, a further 1:3 dilution was carried out, resulting in a total dilution of 1:300. At least 8 wells were reserved as blank control on each of the plates, i.e., containing only 0.3% DMSO. In addition, at least 8 wells were reserved as positive control to detect the specificity to cell signals. Fluoxetine, a compound as the positive control, was assayed at its maximum blocking concentration (100 μm) and secondary maximum blocking concentration (10 μm). In addition, an internal recording solution used in the assay (with the components of: 100 mM K-gluconate, 40 mM KCl, 1 mM MgCl2, 1 mM EGTA and 10 mM HEPES, pH7.3) contained Amphotericin B at a final concentration of 200 μg/mL to gain current channels inside the cells. The osmotic pressure of the solution was adjusted with sucrose.
Experimental procedures were carried out following the protocols as set by IonWorks Quattro system (Molecular Devices, San Jose, CA). The current of human Kv1.3 was elicited to 0 millivolt (mV) for four times by a pulse lasting 1 second. A potential of −80 mV was maintained between pulses, for 5 seconds. First, a early voltage application program was started in the IonWorks Quattro system, and then the compounds were added and incubated for 600 seconds. Next, a late voltage application program was started until completion of all assays.
The maximum peak outward currents both before and after addition of the compounds as well as the average tail current elicited when the fourth pulse rose to 0 mV were measured. The inhibitory activity of the compounds against Kv1.3 can be calculated by dividing the measured current amplitude after addition of the compounds by the measured current amplitude before addition of the compounds.
All data was calibrated by a data filtration program of the IonWorks Quattro system. The filtration standard was that: seal quality >30 MΩ, decrease of seal resistance <50% and current amplitude >200 pA.

human Kv1.3, sequence (P22001 whole entry): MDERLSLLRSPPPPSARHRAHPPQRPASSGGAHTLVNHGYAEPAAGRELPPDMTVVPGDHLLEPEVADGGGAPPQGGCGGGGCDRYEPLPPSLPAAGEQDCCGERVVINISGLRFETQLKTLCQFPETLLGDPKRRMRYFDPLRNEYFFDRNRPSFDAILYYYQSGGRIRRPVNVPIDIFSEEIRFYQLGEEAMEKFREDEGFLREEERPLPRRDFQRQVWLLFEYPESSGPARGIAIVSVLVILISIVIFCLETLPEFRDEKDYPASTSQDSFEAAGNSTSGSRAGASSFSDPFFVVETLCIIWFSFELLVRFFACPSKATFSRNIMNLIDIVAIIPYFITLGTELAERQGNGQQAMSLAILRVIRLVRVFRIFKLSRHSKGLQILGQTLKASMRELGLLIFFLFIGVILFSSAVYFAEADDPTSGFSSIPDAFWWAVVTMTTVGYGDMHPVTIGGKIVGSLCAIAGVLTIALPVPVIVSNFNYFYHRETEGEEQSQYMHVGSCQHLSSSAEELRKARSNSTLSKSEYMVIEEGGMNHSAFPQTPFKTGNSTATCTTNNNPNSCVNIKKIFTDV

| Compound | IC50 [nM] |
| --- | --- |
| CN1CCCN(c2ccc(N(Cc3ccccc3)S(=O)(=O)c3ccccc3)cc2C#N)C1=O [Compound 17, N-benzyl-N-(3-cyano-4-(3-methyl-2-oxotetrahydropyrimidin-1(2H)-yl)phenyl)benzenesulfonamide] | 190 |
| CN(C)CCOC1CCN(c2ccc(N(Cc3ccccc3)S(=O)(=O)c3ccccc3)cc2C#N)CC1 [Compound 18, N-benzyl-N-(3-cyano-4-(4-(2-(dimethylamino)ethoxy)piperidin-1-yl)phenyl)benzenesulfonamide] | 101 |
| CCCS(=O)(=O)N(Cc1ccc(F)cc1)c1ccc(N2CCC(O)CC2)c(C#N)c1 [Compound 19, N-(3-cyano-4-(4-hydroxypiperidin-1-yl)phenyl)-N-(4-fluorobenzyl)propane-1-sulfonamide] | 130 |
| N#Cc1cc(N(Cc2ccc(F)cc2)S(=O)(=O)c2ccccc2)ccc1N1CCC(O)CC1 [Compound 20, N-(3-cyano-4-(4-hydroxypiperidin-1-yl)phenyl)-N-(4-fluorobenzyl)benzenesulfonamide] | 90 |
| CCCS(=O)(=O)N(Cc1ccccc1)c1ccc(N2CCN(C(=O)OCC)CC2)c(C#N)c1 [Compound 22, Ethyl 4-(4-(N-benzylpropanesulfonamido) 2-cyanophenyl)piperazin-1-formate] | 333 |
| CCCS(=O)(=O)N(Cc1cccc(F)c1)c1ccc(N2CCN(C(=O)OCC)CC2)c(C#N)c1 [Compound 23, Ethyl 4-(2-cyano-4-(N-(3-fluorobenzyl)propanesulfonamido)phenyl) piperazin-1-formate] | 176 |
| CCCS(=O)(=O)N(Cc1ccccc1F)c1ccc(N2CCN(C(=O)OCC)CC2)c(C#N)c1 [Compound 25, Ethyl 4-(2-cyano-4-(N-(2-fluorobenzyl)propanesulfonamido)phenyl) piperazin-1-formate] | 321 |
| CCCS(=O)(=O)N(Cc1cccc(OC)c1)c1ccc(N2CCN(C(=O)OCC)CC2)c(C#N)c1 [Compound 26, Ethyl 4-(2-cyano-4-(N-(3-methoxybenzyl)propanesulfonamido)phenyl) piperazin-1-formate] | 420 |
| CCCS(=O)(=O)N(Cc1ccc(OC)cc1)c1ccc(N2CCN(C(=O)OCC)CC2)c(C#N)c1 [Compound 27, Ethyl 4-(2-cyano-4-(N-(4-methoxybenzyl)propanesulfonamido)phenyl)piperazin-1-formate] | 239 |
| CCCS(=O)(=O)N(Cc1ccc(OC)cc1F)c1ccc(N2CCN(C(=O)OCC)CC2)c(C#N)c1 [Compound 29, Ethyl 4-(2-cyano-4-(N-(2-fluoro-4-methoxybenzyl)propanesulfonamido)phenyl)piperazin-1-formate] | 439 |
| CCCS(=O)(=O)N(Cc1ccc(F)cc1OC)c1ccc(N2CCN(C(=O)OCC)CC2)c(C#N)c1 [Compound 30, Ethyl 4-(2-cyano-4-(N-(4-fluoro-2-methoxybenzyl)propanesulfonamido)phenyl)piperazin-1-formate] | 288 |
| CCCS(=O)(=O)N(Cc1ccncn1)c1ccc(N2CCN(C(=O)OCC)CC2)c(C#N)c1 [Compound 31, Ethyl 4-(2-cyano-4-(N-(pyrimidin-4-ylmethyl)propanesulfonamido)phenyl) piperazin-1-formate] | 412 |
| CCCS(=O)(=O)N(Cc1ccccn1)c1ccc(N2CCN(C(=O)OCC)CC2)c(C#N)c1 [Compound 32, Ethyl 4-(2-cyano-4-(N-(pyridin-2-ylmethyl)propanesulfonamido)phenyl) piperazin-1-formate] | 165 |
| CCCS(=O)(=O)N(Cc1ccco1)c1ccc(N2CCN(C(=O)OCC)CC2)c(C#N)c1 [Compound 33, Ethyl 4-(2-cyano-4-(N-(furan-2-ylmethyl)propanesulfonamido)phenyl) piperazin-1-formate] | 839 |
| CCCS(=O)(=O)N(Cc1cscn1)c1ccc(N2CCN(C(=O)OCC)CC2)c(C#N)c1 [Compound 34, Ethyl 4-(2-cyano-4-(N-(thiazol-4-ylmethyl)propanesulfonamido)phenyl) piperazin-1-formate] | 645 |
